What was measured:
VEGFA = VEGFA mRNA induction by 12-hour hypoxia in HEK293 cells (qRT-PCR); type: cell-based, human; settings: hypoxia 12 hours
Experimental: In FIG. 3B, HEK293 cells were transiently transfected with SerRS^WT or SerRS^S101A/S241A constructs or empty control vector. 24 hours post-transfection, VEGFA mRNA induction by 12-hour-hypoxia treatment was monitored by qRT-PCR (means±SEM from four independent experiments; *P<0.05, **P<0.01, ***P<0.005). In FIG. 3C, HEK293 cells were transiently transfected with indicated constructs. 36 hours post-transfection, VEGFA mRNA induction by 12-hour-hypoxia treatment was monitored by qRT-PCR (means±SEM from four independent experiments; *P<0.0, **P<0.001, ***P<0.0001). The protein levels of SerRS, HIF-1α, and β-actin were examined by western blot (bottom).
Transient transfections were performed using Lipofectamine 2000 (ThermoFisher Scientific).
One gram of the total RNA from each sample was reversely transcribed to cDNA by M-MLV reverse transcriptase (Promega, Madison, Wis., USA). All real-time PCR reactions were performed using the StepOnePlus Real-Time PCR system (ThermoFisher Scientific) with SYBR Select Master Mix ThermoFisher Scientific). […] The PCR reaction program started at 95° C. for 10 min, followed by 45 cycles of 95° C. for 20 seconds and 60° C. for 1 min. Each experiment was carried out in triplicate. The VEGFA gene expression was normalized to that of β-ACTIN. Statistical analyses were performed with the software SigmaPlot (version 10.0). Student's t-test was used to analyze the changes between different groups.

ATM/ATR kinases = test: In vitro phosphorylation of recombinant SerRS by DNA-activated HEK293 nuclear extract (p-SQ immunoblot, 32P-labelling); type: biochemical, human; settings: recombinant his6-tagged protein, p-SQ antibody and 32P-labelling
Experimental: FIGS. 1A-G show SerRS is important for hypoxia induced VEGFA expression and is phosphorylated by ATM and ATR kinases under hypoxia at serine 101 and serine 241 residues. In FIG. 1A, HEK293 cells were transfected with shRNAs targeting SerRS (sh-SerRS) or GlyRS (sh-GlyRS), or nonspecific control shRNA (sh-Control). 48 hours post-transfection, cells were cultured under hypoxia or normoxia conditions for 12 hours. Immunoblot of cell lysates with anti-SerRS, anti-GlyRS and anti-β-actin antibodies (left). VEGFA expression levels were measured by qRT-PCR (right) and relative induction of VEGFA transcription under hypoxia were plotted (right, inset) (means±SEM. from four independent experiments; *P<0.01, **P<0.0001). […] The conserved ATM/ATR substrate motif residues are underlined. In FIG. 1C, recombinant his6-tagged human SerRS or GlyRS were incubated with γ-^32P-ATP and HEK293 cell nuclear extracts which are treated with or without double-stranded DNA oligoes mimicking DNA damage stimuli to activate ATM/ATR/DNA-PK kinases. Recombinant proteins were then purified by Ni-NTA beads and subjected to SDS-PAGE and autoradiography. In FIG. 1D, recombinant his6-tagged two human aminoacyl tRNA synthetases (AARS): TyrRS and GlyRS, wild type SerRS, or SerRS mutants with single or double substitutions of serine 101 and serine 241 with alanine (S101A, S241A, and S101A/S241A) were treated as described in FIG. 1C and phosphorylated recombinant proteins were immunoblotted with antibodies as indicated after purification by Ni-NTA beads. In FIG. 1E, HEK293 cells were cultured under hypoxia for 3, 6, and 12 hours. Phosphorylated SerRS was immunoblotted with specific anti-p-SQ antibody after SerRS proteins were immunoprecipitated (IP). Cell lysates were immunoblotted with indicated antibodies for known ATM and ATR substrates (Chk1 and P53). In FIG. 1F, Flag-tagged wild type and mutant SerRS constructs were transfected into HEK293 cells. 24 hours post-transfection, cells were treated with hypoxia stress for 12 hours and ectopically expressed SerRS was then purified by immunoprecipitation (IP) using anti-Flag antibody and immunoblot (IB) with anti-P-SQ antibody and anti-Flag antibody. In FIG. 1G, HEK293 cells were transfected with siRNA against ATM (si-ATM) or ATR (si-ATR) and treated with hypoxia stress for 12 hours. Phosphorylated SerRS were immunoblotted as described in FIG. 1E. […]
For protein purification, human SerRS and its mutant genes were subeloned into pET-20b(+) plasmid (Novagen, Darmstadt, Germany) and overexpressed in E. coli. […] The purities of the recombinant proteins were assessed by Coomassie blue staining following 4-12% Mini Gel (ThermoFisher Scientific) electrophoresis. Protein concentrations were determined using Bradford protein assay (BioRad, Hercules, Calif., USA). […]

SIRT2 = test: Co-immunoprecipitation of SerRS with SIRT2 in HEK293 cells; type: cell-based, human; settings: V5-tagged SIRT2 and Flag-tagged SerRS co-transfected
Experimental: The cytosolic fractions (Cy), nuclear fractions (Nu), and the whole cell lysates (WCL) were examined by immunoblot with antibodies against SerRS, nuclear protein Lamin A/C, and cytosolic protein α-tubulin. In FIG. 8B, HEK293 cells were transfected with Flag-tagged SerRS^WT, SerRS^S101A/S241A, or SerRS^S101D/S241D and subjected to cell fractionation and IB with anti-Flag, anti-Lamin A/C, and anti-α-tubulin antibodies. In FIG. 8C, HEK293 cells were cultured under hypoxia for 6 hours and 12 hours. Cells were then lysed and subjected to IP with anti-SerRS antibody and IB with both anti-SerRS and anti-SIRT2 antibodies. In FIG. 8D, HEK293 cells were co-transfected with V5-tagged SIRT2 and Flag-tagged wild type or mutant SerRS. 24 hours post-transfection, cell lysates were subjected to IP with anti-Flag antibody and IB with anti-V5 antibody.
Cells were resuspended with lysis buffer (20 mM Tris-HCl (pH 7.5), 150 mM NaCl, 1 mM of EDTA, 1 mM EGTA, 1% Triton X-100, 2.5 mM sodium pyrophosphate, 1 mM beta-glycerophosphate, 1 mM Na3VO4, and protease inhibitor cocktail) on ice. Supernatants were incubated with indicated antibodies and protein-G-conjugated agarose beads (ThermoFisher Scientific) for at least 2 h. […]

[1] = overexpression of SerRS construct, 24 hours post-transfection

| Substance | VEGFA induction under hypoxia (VEGFA; SerRS construct expressed while HIF is knocked down by shRNA (shHIF)) | VEGFA induction under hypoxia (VEGFA; [1]) | level of phosphorylation in vitro (ATM/ATR kinases) | interaction with SIRT2 (SIRT2) |
| --- | --- | --- | --- | --- |
| SerRS^S101A/S241A: phosphorylation-deficient human SerRS double mutant, serine 101 and 241 to alanine, SEQ ID NO: 4 (mouse version in matrigel assay) | completely inhibited VEGFA induction | significantly suppressed VEGFA induction | almost had no phosphorylation | as strong as with SerRS^WT |
| SerRS^S101D/S241D: SerRS with double substitutions of S101 and S241 with aspartic acid, mimics the phosphorylated SerRS | – | – | – | as strong as with SerRS^WT |
| SerRS^WT: wildtype human seryl-tRNA synthetase protein, SEQ ID NO: 1 (mouse wild type used in the 3B11 matrigel assay) | – | had no effect | robust phosphorylation | – |
